The results in this text go back to patent publication US7541466B2, “Tetrahydroisoquinoline derivatives for treating protein trafficking diseases” (Genzyme Corporation, priority 2003, dated 2009).

This test has as its target T1, ΔF508 CFTR (Homo sapiens, UniProt P13569, DEL508-508).
T1 construct: expressed in transfected cells
Description: MQAE chloride transport assay in C127 cells expressing ΔF508 CFTR. The note with it: for % Maximal Response @ 1.25 μM: limiting concentration 1.25 μM, percentage of low temperature response; for % Maximal Response @ 1.25 μM / EC50: C127 ΔF508 CFTR cells; for Emax: C127, plateau level in activity at high compound concentration, read-out: % of Maximal Response; for Emax / % of Maximal Response: as a percentage of the low temperature response; for EC50: chloride transport activity, MQAE; for % of Maximal Response: plateau level in activity at high compound concentration. It is filed as cell-based, murine. On the procedure:
C127 cells are a murine mammary epithelial cell line obtained from ATCC (#CRL 1616, American Type Culture Collection, Manassas, Va.). C127 cells were transfected with a bovine papilloma virus-based eukaryotic expression vector containing genes for ΔF508 CFTR and neomycin resistance whose expression was driven by a metallothionein promoter. Clonal cell populations resistant to G418 and positive for staining with anti-CFTR antibody were identified.
C127 cells expressing ΔF508 CFTR were grown in microtiter plates in DMEM (Dulbecco's Modified Eagle Medium, Hyclone, Logan, Utah) supplemented with fetal bovine serum, antibiotics, and glutamine in a 37° C., 5% CO2 atmosphere. Once confluent, the cells were loaded overnight with the disclosed compounds and a fluorescent dye sensitive to chloride ion concentration, N-(ethoxycarbonylmethyl)-6-methoxy quinolinium bromide (MQAE) (Verkman, Am. J. Physiol. 259 C375-C388 (1990)).
The following day, cells were washed with chloride-containing buffer to remove extracellular MQAE and to quench intracellular MQAE fluorescence. Chloride buffer was flicked out and replaced with nitrate buffer with added forskolin and IBMX (isobutylmethylxanthine) to stimulate CFTR activity. […] Buffers were adjusted to pH 7.4 and contained: 10 mM HEPES (N-2-Hydroxyethylpiperazine-N′-2-ethanesulfonic acid), 2.4 mM K2HPO4, 0.6 mM KH2PO4, 1.0 mM CaSO4, 1.0 mM MgSO4, 150 mM NaCl or NaNO3, and 25 mM glucose.
The increase in MQAE fluorescence as a function of time was followed using 360 nm excitation and 460 nm emission wavelengths. Fluorescence increased as chloride flowed out of cells through CFTR and the rate of increase in fluorescence over the first five minutes was taken as a measure of chloride transport activity.
Cells were treated with mixtures of up to 100 compounds per well for ca. 18 hours before the assay for chloride transport activity. […] Dose-response curves were generated and compounds were ranked based on their EC50 values and maximal responses (the plateau level in activity at high compound concentration, as a percentage of the low temperature response).

Usually EC50 stands for the concentration needed to bring the measured effect to its halfway point.

T1 sequence (P13569 with tags, fused parts or gaps DEL508-508): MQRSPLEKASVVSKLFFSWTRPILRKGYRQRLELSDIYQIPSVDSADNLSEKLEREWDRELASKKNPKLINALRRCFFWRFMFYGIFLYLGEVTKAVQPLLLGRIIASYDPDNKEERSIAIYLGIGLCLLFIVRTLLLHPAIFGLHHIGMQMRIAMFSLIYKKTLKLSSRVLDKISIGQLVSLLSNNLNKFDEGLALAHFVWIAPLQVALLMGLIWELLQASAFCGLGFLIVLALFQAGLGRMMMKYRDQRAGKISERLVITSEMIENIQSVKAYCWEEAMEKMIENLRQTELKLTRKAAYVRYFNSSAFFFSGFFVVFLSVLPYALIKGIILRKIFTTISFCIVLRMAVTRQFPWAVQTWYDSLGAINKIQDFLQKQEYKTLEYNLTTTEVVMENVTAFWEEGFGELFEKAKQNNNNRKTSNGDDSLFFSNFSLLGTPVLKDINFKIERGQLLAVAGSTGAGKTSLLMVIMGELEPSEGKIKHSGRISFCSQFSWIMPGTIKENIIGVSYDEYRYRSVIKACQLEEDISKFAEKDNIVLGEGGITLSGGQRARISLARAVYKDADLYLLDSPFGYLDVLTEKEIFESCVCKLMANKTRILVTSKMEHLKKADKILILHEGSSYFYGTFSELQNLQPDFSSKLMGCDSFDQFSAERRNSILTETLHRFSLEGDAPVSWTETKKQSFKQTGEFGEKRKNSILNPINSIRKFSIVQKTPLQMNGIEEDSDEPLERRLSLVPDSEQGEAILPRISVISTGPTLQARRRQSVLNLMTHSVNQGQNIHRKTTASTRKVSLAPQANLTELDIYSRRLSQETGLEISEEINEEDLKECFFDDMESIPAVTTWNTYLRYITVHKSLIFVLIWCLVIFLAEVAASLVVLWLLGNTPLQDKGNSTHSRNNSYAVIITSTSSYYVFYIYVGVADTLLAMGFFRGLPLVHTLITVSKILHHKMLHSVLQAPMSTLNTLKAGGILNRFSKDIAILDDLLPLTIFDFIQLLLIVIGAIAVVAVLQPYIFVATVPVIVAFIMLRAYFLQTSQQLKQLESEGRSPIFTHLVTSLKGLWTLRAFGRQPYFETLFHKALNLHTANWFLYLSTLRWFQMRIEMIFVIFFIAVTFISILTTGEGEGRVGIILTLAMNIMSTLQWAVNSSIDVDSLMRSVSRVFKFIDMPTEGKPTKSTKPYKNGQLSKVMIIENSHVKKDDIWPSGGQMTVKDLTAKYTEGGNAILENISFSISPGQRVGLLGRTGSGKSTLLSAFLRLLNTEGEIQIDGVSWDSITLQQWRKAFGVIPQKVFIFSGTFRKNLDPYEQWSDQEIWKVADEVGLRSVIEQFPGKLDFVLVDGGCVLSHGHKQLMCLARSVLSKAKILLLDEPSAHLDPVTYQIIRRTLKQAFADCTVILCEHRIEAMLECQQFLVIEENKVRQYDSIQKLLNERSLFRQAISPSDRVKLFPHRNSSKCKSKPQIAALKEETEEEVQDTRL

Regarding `O=C(NCCc1ccc(Br)cc1)C1Cc2ccccc2CN1C(=O)c1cccc(Oc2ccccc2)c1` (racemic) [Compound 73, (±)-2-(3-Phenoxybenzoyl)-1,2,3,4-tetrahydroisoquinoline-3-carboxylic acid[2-(4-bromophenyl)-ethyl]amide], the “% Maximal Response @ 1.25 μM” value came out at 34%. Turning to `CC(C)(C)c1ccc(Oc2cccc(C(=O)N3Cc4ccccc4CC3C(=O)Nc3ccc(Cl)cc3)c2)cc1` (racemic) [Compound 8], the Emax was 95% and a half-maximal response (EC50) required 280 nM. With `O=C(Nc1cccnc1)C1Cc2ccccc2CN1C(=O)c1cccc(Oc2ccccc2)c1` (racemic) [Compound 98], the Emax is 55%. `CCCCCc1ccc(NC(=O)C2Cc3c(C)cccc3CN2C(=O)c2cccc(Oc3ccccc3)c2)cc1` (racemic) [Compound 21]: the Emax was determined as 28% and the concentration giving a half-maximal response (EC50) came to 170 nM. Consider `CCCCCCN(C(C)=O)c1ccc(NC(=O)C2Cc3ccccc3CN2C(=O)c2cccc(Oc3ccccc3)c2)cc1` (racemic) [Compound 90, (±)-2-(3-Phenoxybenzoyl)-1,2,3,4-tetrahydroisoquinoline-3-carboxylic acid[4-(acetylhexylamino)phenyl]amide], for which the Emax turned out to be 66% and the midpoint of the response, the EC50, lay at 59 nM. For `CCCCCc1ccc(NC(=O)[C@@H]2Cc3ccccc3CN2C(=O)c2cccc(OC(CC)CC)c2)cc1` [Compound 141], the Emax came to 84% and the EC50 was 12 nM. As to `CCCCCCN(C(C)=O)c1ccc(NC(=O)[C@@H]2Cc3ccccc3CN2C(=O)c2cccc(Oc3ccccc3)c2)cc1` [Compound 91], the Emax was 70% and a half-maximal response (EC50) required 29 nM. On the same counts, the results for `CCCc1ccc(NC(=O)C2Cc3ccccc3CN2C(=O)c2cccc(Oc3ccccc3)c2)cc1` (racemic) [Compound 75] are 82% and 270 nM.

Turning to `CCCCCc1ccc(NC(=O)[C@@H]2Cc3ccccc3CN2C(=O)c2ccc(OC)c(OCc3ccccc3)c2)cc1` [Compound 116], the Emax was 88% and the EC50 turned out to be 18 nM. Consider `CCCCCc1ccc(NC(=O)[C@@H]2Cc3ccccc3CN2C(=O)c2cc(Oc3cccnc3)ccn2)cc1` [Compound 147], for which the Emax worked out at 32% and the response was half-maximal at 41 nM (EC50). `CCCCCc1ccc(NC(=O)[C@@H]2Cc3ccccc3CN2C(=O)c2ccc(OC)c(OC)c2)cc1` [Compound 127]: the Emax amounted to 83% and a half-maximal effect (EC50) was put at 180 nM. On the same counts, the results for `CCCC(=O)N(C)c1ccc(NC(=O)C2Cc3ccccc3CN2C(=O)c2cccc(Oc3ccccc3)c2)cc1` (racemic) [Compound 95, (±)-2-(3-Phenoxybenzoyl)-1,2,3,4-tetrahydroisoquinoline-3-carboxylic acid[4-(butyrylmethylamino)-phenyl]amide] are 80% and 150 nM. For `CCCCCc1ccc(NC(=O)[C@@H]2Cc3ccccc3CN2C(=O)c2cc(OCCN3CCOCC3)cc(OC(C)C)c2)cc1` [Compound 137], the Emax was found to be 69% and the EC50 stood at 180 nM. As to `COc1ccc(C(=O)N2Cc3ccccc3CC2C(=O)Nc2ccc(Cl)cc2)cc1Oc1ccccc1` (racemic) [Compound 17], the Emax is 65% and the EC50 turned out to be 67 nM.

As for `CCCCCc1ccc(NC(=O)[C@@H]2Cc3ccccc3CN2C(=O)c2cc(Oc3ccccc3)ccn2)cc1` [Compound 118], the Emax worked out at 79%. Regarding `CCCCCc1ccc(NC(=O)[C@@H]2Cc3ccccc3CN2C(=O)c2cccc(Oc3ccc(OCC)c(Oc4ccccc4)c3)c2)cc1` [Compound 121, (S)-2-[3-(4-Ethoxy-3-phenoxyphenoxy)benzoyl]-1,2,3,4-tetrahydroisoquinoline-3-carboxylic acid (4-pentylphenyl)amide], the 50% effective concentration (EC50) amounted to 6.3 nM and the “% of Maximal Response” value is listed as 80%. As to `O=C(Nc1ccc(Cl)cc1)C1Cc2ccccc2CN1C(=O)c1cccc(OCc2ccccc2)c1` (single isomer, unassigned; (+)) [Compound 14, (+)-2-(3-Benzyloxybenzoyl)-1,2,3,4-tetrahydroisoquinoline-3-carboxylic acid(4-chlorophenyl)amide], the Emax came out at 85% and the concentration giving a half-maximal response (EC50) is 220 nM.

Take `CCCCCc1ccc(NC(=O)C2Cc3ccccc3CN2C(=O)c2cccc(OC(C)CC)c2)cc1` (centres unmarked) [Compound 140]: the Emax came out at 84% and the 50% effective concentration (EC50) came to 4.4 nM. As to `CCCCCc1ccc(NC(=O)[C@@H]2Cc3ccccc3CN2C(=O)c2cccc(CN3CCOCC3)c2)cc1` [Compound 123], the Emax was determined as 63% and it took 95 nM to reach a half-maximal effect (EC50). As to `CC(=O)N(C)c1ccc(NC(=O)[C@@H]2Cc3ccccc3CN2C(=O)c2cccc(Oc3ccccc3)c2)cc1` [Compound 86], the Emax is 54% and the concentration for a half-maximal effect (EC50) was found to be 66 nM. As to `CCCCN(C(C)=O)c1ccc(NC(=O)C2Cc3ccccc3CN2C(=O)c2cccc(Oc3ccccc3)c2)cc1` (racemic) [Compound 102], the Emax was 70%. Turning to `Cc1ccc(Oc2cccc(C(=O)N3Cc4ccccc4CC3C(=O)Nc3ccc(Cl)cc3)c2)cc1` (racemic) [Compound 7], the Emax stood at 77% and it took 250 nM to reach a half-maximal effect (EC50). With `CC(=O)N(C)c1ccc(NC(=O)C2Cc3ccccc3CN2C(=O)c2cccc(Oc3ccccc3)c2)cc1` (racemic) [Compound 85], the Emax stood at 74% and it took 96 nM to reach a half-maximal effect (EC50). On the same counts, the results for `CC1c2ccccc2CN(C(=O)c2cccc(Oc3ccccc3)c2)C1C(=O)Nc1ccc(Cl)cc1` (single isomer, unassigned) [Compound 18] are 59% and 87 nM. Regarding `CC(C)c1ccc(NC(=O)C2Cc3ccccc3CN2C(=O)c2cccc(Oc3ccccc3)c2)cc1` (racemic) [Compound 78], the Emax came out at 40% and the response was half-maximal at 250 nM (EC50). With `COc1ccccc1Oc1cccc(C(=O)N2Cc3ccccc3CC2C(=O)Nc2ccc(Cl)cc2)c1` (racemic) [Compound 11, (±)-2-[3-(2-Methoxyphenoxy)benzoyl]-1,2,3,4-tetrahydroisoquinoline-3-carboxylic acid(4-chlorophenyl)amide], the Emax came to 52% and the EC50 came out at 260 nM. For the molecule `CCC(C)c1ccc(NC(=O)C2Cc3ccccc3CN2C(=O)c2cccc(Oc3ccccc3)c2)cc1` (racemic) [Compound 77], the Emax amounted to 30% and the response was half-maximal at 350 nM (EC50).

With `CC1c2ccccc2CN(C(=O)c2cccc(Oc3ccccc3)c2)C1C(=O)Nc1ccc(Cl)cc1` (single isomer, unassigned) [Compound 19], the response was half-maximal at 150 nM (EC50) and the “% of Maximal Response” value turned out to be 69%. Take `CCCCCc1ccc(NC(=O)[C@@H]2Cc3ccccc3CN2C(=O)c2cccc(OC(C)C(C)C)c2)cc1` (some centres unmarked) [Compound 142]: the Emax is 88% and the EC50 worked out at 8 nM. As to `O=C(Nc1ccc(C2CCCCC2)cc1)C1Cc2ccccc2CN1C(=O)c1cccc(Oc2ccccc2)c1` (racemic) [Compound 76], the Emax turned out to be 36% and the EC50 was determined as 400 nM. For the molecule `COc1ccc(NC(=O)C2Cc3ccccc3CN2C(=O)c2cccc(Oc3ccccc3)c2)cn1` (racemic) [Compound 99], the Emax amounted to 70% and it took 270 nM to reach a half-maximal effect (EC50). On to `O=C(Nc1ccc(Cl)cc1)C1Cc2ccccc2CN1C(=O)c1ccc2ccccc2c1` (racemic) [Compound 22, (±)-2-(Naphthalene-2-carbonyl)-1,2,3,4-tetrahydroisoquinoline-3-carboxylic acid(4-chlorophenyl)amide], for which the “% Maximal Response @ 1.25 μM” value is listed as 36%. On to `COc1ccc(C(=O)N2Cc3ccccc3CC2C(=O)Nc2ccc(Cl)nc2)cc1Oc1ccccc1` (racemic) [Compound 108], for which the Emax turned out to be 60% and the concentration for a half-maximal effect (EC50) was 100 nM. `CCCCN(C(C)=O)c1ccc(NC(=O)[C@@H]2Cc3ccccc3CN2C(=O)c2cccc(Oc3ccccc3)c2)cc1` [Compound 103]: the Emax was found to be 76%. Take `O=C(Nc1ccc(Cl)cc1)C1Cc2ccc(O)cc2CN1C(=O)c1cccc(Oc2ccccc2)c1` (racemic) [Compound 20]: the Emax is 28% and the response was half-maximal at 1240 nM (EC50).

For `O=C(Nc1ccc(I)cc1)C1Cc2ccccc2CN1C(=O)c1cccc(Oc2ccccc2)c1` (racemic) [Compound 93], the Emax amounted to 60%. For `CCCCCc1ccc(NC(=O)C2Cc3ccccc3CN2C(=O)c2cccc(OCc3ccccc3)c2)cc1` (racemic) [Compound 113], the Emax is 91% and a half-maximal effect (EC50) was put at 69 nM. For `O=C(Nc1ccc(Cl)cc1)C1Cc2ccccc2CN1C(=O)c1cccc(Oc2ccccc2)c1` (racemic) [Compound 1], the Emax is 79%.
